According to patent US20070265223A1, “COMPOSITIONS AND METHODS OF ENHANCING SURVIVABILITY AND REDUCING INJURY OF CELLS, TISSUES, ORGANS, AND ORGANISMS UNDER HYPOXIC OR ISCHEMIC CONDITIONS” (IKARIA, INC., priority 2006, published 2007):
Like-named read-outs stand apart in the source and are kept apart here.

Key:
[1] = test system: mice subjected to lethal hypoxia; assay: Protection of mice from lethal hypoxia using 5′-AMP; format: in vivo, mouse (C57BI/6); conditions: for survival of exposure to hypoxia: 4% oxygen for 60 min; for time to full recovery from lowest temperature: after return to ambient air
Procedure: The ability of 5′-AMP to protect mice from lethal hypoxia was determined by comparing the effects of hypoxia on mice treated with 5′-AMP to the effects of hypoxia on untreated mice. Male C57BI/6 mice, 5-6 weeks old, with implanted jugular vein catheter (Taconic) were implanted dorsally with a subcutaneous RFID temperature sensor (IPTT-300, Bio Medic Data Systems, Inc.) and allowed to recover for at least 24 hours. Adenosine-5′-monophosphate (AMP sodium salt, Sigma) was dissolved in water, the osmolarity was adjusted with sodium chloride to 300 mOsm, the pH was adjusted with NaOH to 6.3, and the solution was filtered through a 0.2 um filter. The final AMP concentration was 40 mM. Mice were placed into a tall glass-bottom jar with opaque walls and infused via the jugular vein at a rate of 0.8 ul/min for 59.5 min followed by 1.6 ul/min for 12.8 min (total AMP dose=145 umol/kg) with a syringe pump (Harvard Apparatus), until their subcutaneous temperature had decreased to about 33° C. The infusion was stopped, and the mice were exposed for 60 min to an atmosphere of 4% oxygen constructed by mixing air and nitrogen using mass flow controllers (Sierra Instruments). During the infusion and exposure to hypoxia, the animals' subcutaneous temperature was read every 3-5 min and their vital signs were monitored. At the end if the hypoxic period, the animals were removed to ambient air. Temperature measurements were continued until the animals' temperature had returned to the normal range (FIGS. 1A and 1B). A control mouse was exposed to hypoxia, and its time of death was recorded.
The same procedure described above was repeated under conditions wherein the mouse treated with 5′AMP received a constant infusion of 40 mM AMP at 1.6 ul/min for 26.5 min (total AMP dose of 69 umol/kg) until its subcutaneous temperature had reached 33 C. In this case, the AMP-infused mouse (MJVC83) survived exposure to hypoxia for 60 min and recovered fully from the lowest temperature of 24° C. within 1 hour. The control mouse (MJVC84) died after 8.5 min of hypoxia with a final temperature of 32.7° C. (FIGS. 2A and 2B).

[2] = treatment of animals; Zhang et al., Nature 2006; cited from earlier work
[3] = test system: rats subjected to lethal hypoxia; assay: Protection of rats from lethal hypoxia using 5′-AMP; format: in vivo, rat (Sprague Dawley); conditions: rat RJVC35; 40 mM 5′AMP bolus 258 ul then 31.7 ul/min for 66.4 min, total 270 uM/kg; saline control 8.6 min
[4] = cited from earlier work
[5] = test system: mice subjected to lethal hypoxia; assay: Protection of mice from lethal hypoxia using adenosine; format: in vivo, mouse (C57BI/6); conditions: two mice
Procedure: The ability of adenosine to protect mice from lethal hypoxia was determined by comparing the effects of hypoxia on mice treated with adenosine to the effects of hypoxia on untreated mice. Male C57BI/6 mice, 5-8 weeks old, with implanted jugular vein catheter (Taconic) were implanted dorsally with a subcutaneous RFID temperature sensor (PTT-300, Bio Medic Data Systems, Inc.) and allowed to recover for at least 24 hours after implantation. Mice were injected with adenosine (19 mM, 3.2 μl/min total dose approximately 27 mg/kg) and temperature was monitored via the temperature sensor until subcutaneous body temperature had decreased to about 33° C. The infusion was stopped, and these mice, as well as control mice injected with sodium chloride) were exposed for 60 min to an atmosphere of 4% oxygen constructed by mixing air and nitrogen using mass flow controllers (Sierra Instruments). During the infusion and exposure to hypoxia, the animals' subcutaneous temperature was monitored every 3-5 min and their vital signs were monitored. In parallel, a control mouse was injected with vehicle (sodium chloride; NaCI; 137 mM, 3.2 μl/min, total dose of NaCl administered was approximately 41 mg/kg) and put into a hypoxic atmosphere (4% O2) at the same time as the mouse injected with adenosine, and its behavior and body temperature monitored. Following 60 min in hypoxic conditions, the mice (MJVC104 and MJVC 108) treated with adenosine were transferred into room air, and recovery of the mice was recorded by observing behavior and monitoring body temperature. […] The control mice (MJVC105 and MJVC107) died after approximately six minutes in the hypoxic atmosphere (4% O2; FIGS. 4B and 5B).

[6] = adenosine approximately 27 mg/kg, after 60 min 4% O2

Q: With Nc1ncnc2c1ncn2[C@@H]1O[C@H](COP(=O)(O)O)[C@@H](O)[C@H]1O [5′-AMP, Adenosine-5′-monophosphate] as the molecule, how does the “survival of exposure to hypoxia” value ([1]; mouse MJVC80, 40 mM AMP jugular vein infusion 0.8 ul/min 59.5 min then 1.6 ul/min 12.8 min, total 145 umol/kg) read?
A: survived

Q: What about the “time to full recovery from lowest temperature” value ([1]; mouse MJVC80, total AMP dose 145 umol/kg) of the same molecule?
A: ≤ 1 h

Q: What about the “survival of exposure to hypoxia” value ([1]; mouse MJVC83, constant infusion 40 mM AMP 1.6 ul/min 26.5 min, total 69 umol/kg) of the same molecule?
A: survived

Q: And the “time to full recovery from lowest temperature” value ([1]; mouse MJVC83, total AMP dose 69 umol/kg)?
A: ≤ 1 h

Q: What about the “induction of torpor (depressed body temperature, mClps expression)” value [2] of the same molecule?
A: induced torpor

Q: And the “time of survival in 3.5% oxygen” value [3]?
A: 38.2 min

Q: Which symptoms on exposure ([4]; 50 ppm) does the source give for [C-]#[O+] [carbon monoxide] here?
A: no symptoms

Q: What about the symptoms on exposure ([4]; 200 ppm, within two-three hours) of the same molecule?
A: slight headache

Q: And the symptoms on exposure ([4]; 400 ppm, within one to two hours)?
A: frontal headache

Q: What about the symptoms on exposure ([4]; 800 ppm, within 45 minutes) of the same molecule?
A: dizziness, nausea, and/or convulsions

Q: And the lethality on exposure ([4]; around 1000 ppm, exposure for more than around 1-2 minutes, an organism)?
A: expire

Q: For Nc1ncnc2c1ncn2[C@@H]1O[C@H](CO)[C@@H](O)[C@H]1O [adenosine], which “survival of hypoxic atmosphere” value ([5]; adenosine 19 mM, 3.2 μl/min, total approximately 27 mg/kg, 4% O2 for 60 minutes) is on record?
A: survived

Q: And the “behavioral abnormalities the following day” value [5, 6]?
A: No behavioral abnormalities

Q: What about the “recovery after return to room air” value [5, 6] of the same molecule?
A: recovered completely
